Measurements: patent US11439643B2, “Combination therapy using belinostat and pralatrexate to treat lymphoma” (Spectrum Pharmaceuticals, Inc., priority 2015, dated 2022)
Like-named read-outs stand apart in the source and are kept apart here.

How the values were obtained:
Type in all cases: cell-based
[1] = system: KARPAS-299 [Human Non-Hodgkin's Ki-positive Large Cell Lymphoma (T cell origin)]; test: CellTiter-Glo cell viability / growth inhibition, KARPAS-299
Experimental: (§1) The growth inhibitory effects of belinostat alone, and in combination with pralatrexate, was assayed in several different human lymphoma cell lines in vitro.
(§2) Serum used in this study is un-dialyzed fetal bovine serum (Atlanta Biologics) and contains<[…] of 5-methyltetrahydrofolate.
(§3) The cultures are maintained in T75-cm^2 culture flasks at 37° C., 95% air humidity, and 5% CO2. The cells are subcultured at 80-90% confluence and are seeded into 96-well plates at 1.5×10^4 cells per well for each experiment.
(§4) Cell Treatment: Treatment is initiated 24 hours after plating. […] Growth Inhibition Assay: Cell viability is determined using the CellTiter-Glo® Luminescent Cell Viability assay from Promega. The CellTiter-Glo® assay is a homogeneous method to determine and compare cell viability using ATP utilization. Following treatment, 100 μl of growth medium is removed and cells are incubated with 100 μl CellTiter-Glo® reagent for two minutes with nutation and incubated at room temperature for ten additional minutes to stabilize the luminescence signal; luminescence is then measured using a Biotek luminometer with values reported in (Lum).
(§5) Data analysis: Cell viability in each assay is expressed as a percentage versus untreated control cells.

[2] = system: panel of lymphoma cell lines; test: CellTiter-Glo cell viability, panel of lymphoma cell lines; conditions: Homo sapiens; single agent, 72 hr exposure, range over cell lines; read-out: Single agent IC50 values across a panel of lymphoma cell lines
Experimental: as §1, §2, §3
Cell Treatment: Treatment is initiated 24 hours after plating.
Growth Inhibition Assay: Cell viability is determined using the CellTiter-Glo® Luminescent Cell Viability assay from Promega. The CellTiter-Glo® assay is a homogeneous method to determine and compare cell viability using ATP utilization. Following treatment, 100 μl of growth medium is removed and cells are incubated with 100 μl CellTiter-Glo® reagent for two minutes with nutation and incubated at room temperature for ten additional minutes to stabilize the luminescence signal; luminescence is then measured using a Biotek luminometer with values reported in (Lum).
as §5

[3] = system: Jeko-1 [Mantle Cell Lymphoma (B cell origin)]; test: CellTiter-Glo cell viability / growth inhibition, Jeko-1; conditions: Homo sapiens; Jeko-1, belinostat plus pralatrexate concurrently, 72 h; read-out: IC50 in combination studies
Experimental: as §1, §2, §3, §4, §5

[4] = system: HUT-78 [Cutaneous T lymphocyte (T cell origin)]; test: CellTiter-Glo cell viability / growth inhibition, HUT-78; conditions: Homo sapiens, HuT78
Experimental: as §1, §2, §3, §4, §5

[5] = KARPAS-299, belinostat plus pralatrexate concurrently, 72 h, read-out: IC50 in combination studies
[6] = HUT-78, belinostat plus pralatrexate concurrently, 72 h, read-out: IC50 in combination studies
[7] = HUT-78, single agent, 72 hr exposure, read-out: Single Agent IC50

| IC50 [1, 5] | IC50 ([1]; KARPAS-299, single agent, 72 hr exposure, read-out: Single Agent IC50) | IC50 [2] | IC50 [3] | Structure (SMILES) | IC50 [4, 6] | IC50 [4, 7] |
| --- | --- | --- | --- | --- | --- | --- |
| 3.6 nM | 24 nM | 2 to 25 nM | 2.1 nM | C#CCC(Cc1cnc2nc(N)nc(N)c2n1)c1ccc(C(=O)N[C@@H](CCC(=O)O)C(=O)O)cc1 (mixture of isomers) [Pralatrexate, (2S)-2-[[4-[(1RS)-1-[(2,4-diaminopteridin-6-yl)methyl]but-3ynyl]benzoyl]amino]pentanedioic acid] | 4.1 nM | 2.8 nM |
| 127 nM |  | 90 to 210 nM | 87 nM | O=C(/C=C/c1cccc(S(=O)(=O)Nc2ccccc2)c1)NO [Belinostat, (2E)-N-hydroxy-3-[3-(phenylsulfamoyl)phenyl]prop-2-enamide] | 170 nM | 97 nM |
